Data reported in patent US10470986B2, “Resorcinol compounds for dermatological use” (Conopco, Inc., priority 2013, dated 2019).

Columns and labels:
MelanoDerm (Mel-300-B) = experiment: Mattek 3D Skin Equivalents, MelanoDerm (Mel-300-B) assay; format: cell-based, human; conditions: every other day, 14 days
From the text: Many people at different stages of their life are concerned with the degree of pigmentation of their skin and may wish to reduce the skin darkening, or may wish to lighten or even-tone their natural skin color. The mechanism by which skin pigmentation is formed, melanogenesis, is particularly complex and schematically involves the following main steps: Tyrosine→L-Dopa→Dopaquinone→Dopachrome→Melanins. The first two reactions in this series are catalyzed by the enzyme tyrosinase. The activity of tyrosinase is promoted by the action of a-melanocyte stimulating hormone or UV rays. It is well established that a substance has a depigmenting effect if it acts directly on the vitality of the epidermal melanocytes where melanogenesis normally occurs and/or if it interferes with one of the stages in melanin biosynthesis. Pigmentation disorders can take a variety of forms like hyperpigmentation, hypopigmentation, and uneven pigmentation, and include but are not limited to melasma (mask of pregnancy or chloasma), liver spots (which often develop with age) and leukoderma such as vitiligo. […] The degree of pigmentation disorders of the skin in many cases increases with the age of the individuals. Because of the involvement of tyrosinase in melanogensis, tyrosinase inhibition assays are often used to screen potential skin lightening agents. Some mushroom tyrosinases (such as that from Agaricus bisporus) are homologous with mammalian tyrosinase, and mushroom tyrosinase is often used in inhibition assays due to its ready commercial availability. However, the enzyme inhibition assays may not be as good an indicator of activity as assays which are more similar to the intended clinical or cosmetic use, such as the MatTek Corporation's MelanoDerm™ Skin Model (a system which consists of normal, human-derived epidermal keratinocytes and melanocytes formed into a multilayered model of human epidermis).
MelanoDerm (Mel-300-B) assay was conducted according to the manufacturer's instruction (MatTek Corporation). Every other day, the test articles were administered into the EPI-100-NMM-113 culture medium, and positive control, 25 uL of 2% Kojic acid was applied topically. After 14 days, tissue viability and melanocyte morphology were visually verified and tissue melanin was extracted and quantitated against a standard curve. % melanin was calculated as follows: (MelaninDMSO−Melanincomp)/MelaninDMSO×100. The assay was performed for various compounds described herein, as well as for control compounds 4ER, 4IPR, 4HR, 4CHR, kojic acid, and hydroquinone.

B16F1 cells = experiment: B16 Melanin Assay; format: cell-based; conditions: 1 mM Theophylline stimulated, 72 h, media absorbance 405 nm corrected for viability (Calcein-AM); compound concentration not stated
Description: After trypsinization, cells were seeded at 3,000 cells per well in a 96-well plate and allowed to attach overnight. 1 mM Theophylline was used to stimulate melanogenesis, and the compound of interest was added. […] (AbsDMSO/CalceinDMSO-[…]/CalceinDMSO×100. The assay was performed for various compounds described herein, as well as for control compounds 4ER, 4IPR, 4HR, 4CHR, 5MR kojic acid, and hydroquinone. Results are shown in Table 2.

[1] = test system: mushroom tyrosinase (Sigma T3824); experiment: Mushroom Tyrosinase Inhibition Assay; format: biochemical; conditions: 10 μM compound, 300 μM L-Tyrosine, 84 units/mL enzyme, pH 6.5, 15 min at room temperature
Description: 10 μM compound, 300 μM L-Tyrosine, and 84 units/mL of mushroom tyrosinase (Sigma T3824) were combined into 0.05 M potassium monophosphate buffer at pH=6.5, and incubated for 15 min at room temperature. Absorbance was recorded at 490 nm. % tyrosinase inhibition was calculated as follows: (AbsDMSO−Abscmpd)/AbsDMSO×100. The assay was performed for various compounds described herein, as well as for control compounds 4-ethyl resorcinol (4ER), 4-isopropylresorcinol (4IPR), 4-hexylresorcinol (4HR), 4-cyclohexylresorcinol (4CHR), 5-methylresorcinol (5MR), kojic acid (KA), and hydroquinone (HQ), structures of which are shown below.

Row | Structure (SMILES) | MatTek Assay (% Melanin), % Melanin 3D EpiDerm (MelanoDerm (Mel-300-B); 10 μM in culture medium) | MatTek Assay (% Melanin), % Melanin 3D EpiDerm (MelanoDerm (Mel-300-B); 30 μM in culture medium) | B16 Media Melanin (% Melanin), % Melanin B16 (B16F1 cells) | Mushroom Tyrosinase (% remaining enzyme activity), % TYR Activity [1] | MatTek Assay (% Melanin), % Melanin 3D EpiDerm (MelanoDerm (Mel-300-B); positive control, 25 uL of 2% Kojic acid applied topically)
1 | Cc1cc(O)cc(O)c1C(C)C [4,5IPMR, 4-isopropyl-5-methylbenzene-1,3-diol] | 102% | 72% | 71% |  | 
2 | Cc1cc(O)cc(O)c1CC1CCCC1 [4,5MCPMR, 4-cyclopentylmethyl-5-methylbenzene-1,3-diol] | 94% | 72% | 90% | 32% | 
3 | Cc1cc(O)cc(O)c1C(C)c1ccccc1 (centres unmarked) [4,5PEMR, 4-(1-phenylethyl)-5-methylbenzene-1,3-diol] | 98% | 62% | 87% |  | 
4 | Cc1cc(O)cc(O)c1CC(F)(F)F [4,5TFEMR, 4-(2,2,2-trifluoroethyl)-5-methylbenzene-1,3-diol] | 81% | 72% | 90% |  | 
5 | CCC(C)c1c(C)cc(O)cc1O (centres unmarked) [4,5sBMR, 4-sec-butyl-5-methylbenzene-1,3-diol] | 75% | 67% | 76% | 100% | 
6 | Oc1ccc(C2CCCCC2)c(O)c1 [Compound 4CHR, 4-cyclohexylresorcinol, reference compound] | 65% | 36% | 63% | 0% | 
7 | CCc1ccc(O)cc1O [Compound 4ER, 4-ethyl resorcinol, reference compound] | 84% | 61% | 48% | 2% | 
8 | CCCCCCc1ccc(O)cc1O [Compound 4HR, 4-hexylresorcinol, reference compound] | 93% | 72% | 71% | 1% | 
9 | CC(C)c1ccc(O)cc1O [Compound 4IPR, 4-isopropylresorcinol, reference compound] | 71% | 46% | 77% | 1% | 
10 | Cc1cc(O)cc(O)c1 [Compound 5MR, 5-methylresorcinol, reference compound] |  |  | 100% | 100% | 
11 | Oc1ccc(O)cc1 [Hydroquinone, hydroquinone, reference compound] | 94% | 92% | 100% | 100% | 
12 | O=c1cc(CO)occ1O [Kojic Acid, kojic acid, reference compound] | 100% | 100% | 100% | 84% | 75%
